Laboratory results taken from patent publication US20170362228A1, “TETRAHYDRO-PYRIDO[3,4-b]INDOLE ESTROGEN RECEPTOR MODULATORS AND USES THEREOF” (Genentech, Inc., priority 2016, published 2017).
pEC50: −log10 of the molar value. Like-named read-outs stand apart in the source and are kept apart here.

Key:
[1] = target: T1, estrogen receptor alpha (ESR1) (Homo sapiens, UniProt P03372); assay: Breast Cancer Cell ERa High Content Fluorescence Imaging Degradation Assay (Example 901); format: cell-based; conditions: MCF7 breast cancer cells, 4 hours, plateau of the maximal effect
T1 construct: endogenous in cells; host or cells: MCF7 breast cancer cells
T1 sequence (P03372 1-595): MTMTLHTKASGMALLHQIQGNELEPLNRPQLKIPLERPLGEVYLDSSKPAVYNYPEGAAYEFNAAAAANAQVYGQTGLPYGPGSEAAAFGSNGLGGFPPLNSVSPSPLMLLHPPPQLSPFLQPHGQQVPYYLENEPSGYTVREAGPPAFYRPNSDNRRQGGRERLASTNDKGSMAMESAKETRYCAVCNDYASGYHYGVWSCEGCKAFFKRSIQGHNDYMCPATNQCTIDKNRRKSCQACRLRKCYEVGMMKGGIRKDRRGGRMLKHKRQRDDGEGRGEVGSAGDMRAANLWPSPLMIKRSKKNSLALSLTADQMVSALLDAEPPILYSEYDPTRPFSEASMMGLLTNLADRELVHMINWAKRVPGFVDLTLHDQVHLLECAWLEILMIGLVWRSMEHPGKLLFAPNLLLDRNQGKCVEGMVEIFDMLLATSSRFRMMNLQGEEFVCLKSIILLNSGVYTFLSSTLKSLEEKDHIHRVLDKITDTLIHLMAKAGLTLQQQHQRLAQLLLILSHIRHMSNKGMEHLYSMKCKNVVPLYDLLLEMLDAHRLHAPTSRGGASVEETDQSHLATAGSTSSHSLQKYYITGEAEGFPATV
Protocol: MCF7 breast cancer cells were seeded on day 1 at a density of 10,000 cells per well in 384 well poly-lysine coated tissue culture plate (Greiner # T-3101-4), in 50 μL/well RPMI (phenol red free), 10% FBS (Charcoal stripped), containing L-glutamine. On day 2, compounds were prepared at 2 compound source concentrations: 100 μM and 1 μM (ultimately to give 2 overlapping titration curves), in a Labcyte low dead volume plate, 10 μL/well, and 10 μL of DMSO in designated wells for backfill, and 5 μM Fulvestrant (control compound) in designated wells. Compounds and controls were dispensed using a Labcyte Echo acoustic dispenser to dispense compounds with a predefined serial dilution (1.8×, 10 point, in duplicate) and appropriate backfill and control compounds (final total volume transferred was 417.5 nL and compound dispense volume ranges from 2.5 nL to 417.5 nL; 0.84% DMSO (v/v) final), ultimately producing a concentration range from 0.05 nM to 835 nM. Cell plates were incubated at 37° C., for 4 hours. Fixation and permeabilization were carried out using a Biotek EL406 plate washer and dispenser as follows. Cells were fixed by addition of 15 μL of 16% paraformaldehyde (Electron Microscopy Sciences #15710-S) directly to the 50 μL cell culture medium in each well using the peristaltic pump 5 μL cassette on a Biotek EL406 (final concentration of formaldehyde was 3.7% w/v). Samples were incubated 30 minutes. Well contents was aspirated and 50 μL/well of Phosphate Buffered Saline (PBS) containing 0.5% w/v bovine serum albumen, 0.5% v/v Triton X-100 (Antibody Dilution Buffer) was added to each well. Samples were incubated for 30 minutes. Well contents were aspirated and washed 3 times with 100 μL/well of PBS. Immunofluorescence staining of estrogen receptor alpha (ESR1) was carried out using a Biotek EL406 plate washer and dispenser as follows. The well supernatant was aspirated from the wells and 25 μL/well of anti-ESR1 mAb (F10) (Santa Cruz sc-8002) diluted 1:1000 in Antibody Dilution Buffer was dispensed. Samples were incubated for 2 hours at room temperature. Samples were washed 4 times with 100 μL/well of PBS. 25 uL/well of secondary antibody solution (Alexafluor 488 conjugate anti-mouse IgG (LifeTechnologies #A21202) diluted 1:1000 and Hoechst 33342 1 μg/ml diluted in Antibody Dilution Buffer) were dispensed into each well. Samples were incubated for 2 hours at room temperature. Samples were washed 3 times with 100 μL/well of PBS using a Biotek EL406. Quantitative fluorescence imaging of ESR1 was carried out using a Cellomics Arrayscan V (Thermo). Fluorescence images of the samples (Channel 1: XF53 Hoechst (DNA stain); Channel 2: XF53 FITC (ESR1 stain)) were acquired using a Cellomics VTI Arrayscan using the Bioapplication “Compartmental Analysis” using the auto-exposure (based on DMSO control wells) setting “peak target percentile” set to 25% target saturation for both channels. Channel 1 (DNA stain) was used to define the nuclear region (Circ). Measurements of “Mean_CircAvgIntCh2”, which is the Alexafluor 488 fluorescence intensity (ESR1) within the nuclear region, was measured on a per cell basis and averaged over all the measured cells. Data analysis was carried out using Genedata Screener Software, with DMSO and 5 nM Fulvestrant treated samples being used to define the 0% and 100% changes in ESR1. The “Robust Fit” method was used to define the inflexion point of curve (EC50) and the plateau of the maximal effect (Sinf). Degradation data for exemplary Formula I compounds is reported as ER-alpha MCF7 HCS Sinf(%) values in Table 1.

MCF7 cells = assay: In vitro cell proliferation assays (Examples 902 and 903), MCF7; format: cell-based; conditions: read-out: ER-alpha MCF7 HCS (EC50)
Protocol: Efficacy of estrogen receptor modulator compounds and chemotherapeutic compounds are measured by a cell proliferation assay employing the following protocol (Mendoza et al (2002) Cancer Res. 62:5485-5488).
The CellTiter-Glo® Luminescent Cell Viability Assay is a homogeneous method to determine the number of viable cells in culture based on quantitation of the ATP present, which signals the presence of metabolically active cells. The CellTiter-Glo® Assay is designed for use with multiwell plate formats, making it ideal for automated high-throughput screening (HTS), cell proliferation and cytotoxicity assays. The homogeneous assay procedure involves adding a single reagent (CellTiter-Glo® Reagent) directly to cells cultured in serum-supplemented medium. Cell washing, removal of medium or multiple pipetting steps are not required. The Cell Titer-Glo® Luminescent Cell Viability Assay, including reagents and protocol are commercially available (Promega Corp., Madison, Wis., Technical Bulletin TB288).
The assay assesses the ability of compounds to enter cells and inhibit cell proliferation. The assay principle is based on the determination of the number of viable cells present by quantitating the ATP present in a homogenous assay where addition of the Cell TiterGlo® reagent results in cell lysis and generation of a luminescent signal through the luciferase reaction. The luminescent signal is proportional to the amount of ATP present.
Procedure: Day 1—Seed Cell Plates (384-well black, clear bottom, microclear, TC plates with lid from Falcon #353962), Harvest cells, Seed cells at 1000 cells per 54 μl per well into 384 well Cell Plates for 3 days assay. Cell Culture Medium: RPMI or DMEM high glucose, 10% Fetal Bovine Serum, 2 mM L-Glutamine, P/S. Incubate 0/N (overnight) at 37° C., 5% CO2.
Day 2—Add Drug to Cells, Compound Dilution, DMSO Plates (serial 1:2 for 9 points). Add 20 μl of compound at 10 mM in the 2nd column of 96 well plate. Perform serial 1:2 across the plate (10 μl+20 μl 100% DMSO) for a total of 9 points using Precision Media Plates 96-well conical bottom polypropylene plates from Nunc (cat.#249946) (1:50 dilution). Add 147 μl of Media into all wells. Transfer 3 μl of DMSO+compound from each well in the DMSO Plate to each corresponding well on Media Plate using Rapidplate® (Caliper, a Perkin-Elmer Co.). For 2 drug combination studies, transfer one drug 1.5 μl of DMSO+compound from each well in the DMSO Plate to each corresponding well on Media Plate using Rapidplate. Then, transfer another drug 1.5 μl to the medium plate.
Drug Addition to Cells, Cell Plate (1:10 dilution): Add 6 μl of media+compound directly to cells (54 μl of media on the cells already). Incubate 3 days at 37° C., 5% CO2 in an incubator that will not be opened often.
Day 5—Develop Plates, Thaw Cell Titer Glo Buffer at room temperature: Remove Cell Plates from 37° C. and equilibrate to room temperature for about 30 minutes. Add Cell Titer-Glo® Buffer to Cell Titer-Glo® Substrate (bottle to bottle). Add 30 μl Cell Titer-Glo® Reagent (Promega cat.# G7572) to each well of cells. Place on plate shaker for about 30 minutes. Read luminescence on Analyst HT Plate Reader (half second per well).
Cell viability assays and combination assays: Cells were seeded at 1000-2000 cells/well in 384-well plates for 16 h. On day two, nine serial 1:2 compound dilutions were made in DMSO in a 96 well plate. The compounds were further diluted into growth media using a Rapidplate® robot (Zymark Corp., Hopkinton, Mass.). The diluted compounds were then added to quadruplicate wells in 384-well cell plates and incubated at 37° C. and 5% CO2. After 4 days, relative numbers of viable cells were measured by luminescence using Cell Titer-Glo® (Promega) according to the manufacturer's instructions and read on a Wallac Multilabel Reader® (PerkinElmer, Foster City). EC50 values were calculated using Prism® 4.0 software (GraphPad, San Diego). […]

[2] = Table 1a, DMSO and Fulvestrant define 0% and 100% changes in ESR1

Row | SMILES | ER-alpha MCF7 HCS (S inf) [1, 2] | pEC50 (MCF7 cells; Homo sapiens, MCF7, Table 1a) | ER-alpha MCF7 HCS (S inf) ([1]; Table 1b) | pEC50 (MCF7 cells; Homo sapiens, MCF7, Table 1b) | pEC50 (MCF7 cells; Table 1b)
1 | C[C@@H]1Cc2c([nH]c3c(F)cccc23)[C@@H](c2c(F)cc([C@H](O)C3CN(CCCF)C3)cc2F)N1CC(F)(F)CO (single isomer, unassigned) [Compound 133] | −95.88% | 10.08 | – | – | –
2 | C[C@@H]1Cc2c([nH]c3c(F)cccc23)[C@@H](c2c(F)cc([C@@H](O)C3CN(CCCF)C3)cc2F)N1CC(F)(F)CO (single isomer, unassigned) [Compound 134] | −94.44% | 9.86 | – | – | –
3 | C[C@@H]1Cc2c([nH]c3ccccc23)[C@@H](c2c(F)cc([C@@H](O)C3CN(CCCF)C3)cc2F)N1CC(F)(F)CO (single isomer, unassigned) [Compound 135] | −99.46% | 10.41 | – | – | –
4 | C[C@@H]1Cc2c([nH]c3ccccc23)[C@@H](c2c(F)cc([C@H](O)C3CN(CCCF)C3)cc2F)N1CC(F)(F)CO (single isomer, unassigned) [Compound 136] | −99.81% | 10.18 | – | – | –
5 | C[C@@H]1Cc2c([nH]c3cc(F)ccc23)[C@@H](c2c(F)cc([C@H](O)C3CN(CCCF)C3)cc2F)N1CC(F)(F)CO (single isomer, unassigned) [Compound 142] | −100% | 10.19 | – | – | –
6 | C[C@@H]1Cc2c([nH]c3ccccc23)[C@@H](c2c(F)cc(C(O)C3CN(CCCF)C3)cc2F)N1CC(F)(F)CO (stereo partly drawn) [Compound 106, 3-((1R,3R)-1-(2,6-difluoro-4-((1-(3-fluoropropyl)azetidin-3-yl)(hydroxy)methyl)phenyl)-3-methyl-1,3,4,9-tetrahydro-2H-pyrido[3,4-b]indol-2-yl)-2,2-difluoropropan-1-ol] | −98.3% | 10.46 | – | – | –

Other lines, results leading:

Row | ER-alpha MCF7 HCS (S inf) [1, 2] | pEC50 (MCF7 cells; Homo sapiens, MCF7, Table 1a) | ER-alpha MCF7 HCS (S inf) ([1]; Table 1b) | pEC50 (MCF7 cells; Homo sapiens, MCF7, Table 1b) | pEC50 (MCF7 cells; Table 1b) | SMILES
7 | −100.96% | 10.13 | – | – | – | C[C@@H]1Cc2c([nH]c3ccccc23)[C@@H](c2c(F)cc([C@H](O)C3CN(CCCF)C3)cc2F)N1C[C@@H](F)CO (single isomer, unassigned) [Compound 137]
8 | −97.67% | 9.56 | – | – | – | C[C@@H]1Cc2c([nH]c3ccccc23)[C@@H](c2c(F)cc([C@@H](O)C3CN(CCCF)C3)cc2F)N1C[C@@H](F)CO (single isomer, unassigned) [Compound 138]
9 | −95.81% | 9.00 | – | – | – | C[C@@H]1Cc2c([nH]c3ccccc23)[C@@H](c2c(F)cc([C@H](O)C3CN(CCCF)C3)cc2F)N1C[C@H](F)CO (single isomer, unassigned) [Compound 140]
10 | – | – | −102% | 10.26 | – | C[C@@H]1Cc2c([nH]c3ccccc23)[C@@H](c2c(F)cc([C@H](F)C3CN(CCCF)C3)cc2F)N1C[C@@H](F)CO (single isomer, unassigned) [Compound 156]
11 | – | – | −100% | 10.11 | – | C[C@@H]1Cc2c([nH]c3ccccc23)[C@@H](c2c(F)cc([C@@H](F)C3CN(CCCF)C3)cc2F)N1C[C@@H](F)CO (single isomer, unassigned) [Compound 157]
12 | – | – | −101% | – | 10.49 | C[C@@H]1Cc2c([nH]c3ccccc23)[C@@H](c2c(F)cc([C@@H](O)C3CN(CCCF)C3)cc2F)N1CC(F)CF (stereo in doubt) [Compound 160, (S)-(4-((1R,3R)-2-((R)-2,3-difluoropropyl)-3-methyl-2,3,4,9-tetrahydro-1H-pyrido[3,4-b]indol-1-yl)-3,5-difluorophenyl)(1-(3-fluoropropyl)azetidin-3-yl)methanol]
13 | −94.25% | 9.92 | – | – | – | C[C@@H]1Cc2c([nH]c3ccccc23)[C@@H](c2c(F)cc([C@H](F)C3CN(CCCF)C3)cc2F)N1CC(C)(C)F [Compound 103, (1R,3R)-1-(2,6-difluoro-4-((R)-fluoro(1-(3-fluoropropyl)azetidin-3-yl)methyl)phenyl)-2-(2-fluoro-2-methylpropyl)-3-methyl-2,3,4,9-tetrahydro-1H-pyrido[3,4-b]indole]
